Data taken from patent US7517960B2, “Rat KCNQ5 voltage-gated potassium channel” (Wyeth, priority 2006, dated 2009).

How the values were obtained:
[1] = tested on: rat KCNQ5; assay: Two-electrode voltage clamp recording of rat KCNQ5 expressed in Xenopus laevis oocytes; assay type: cell-based; details: homomeric rKCNQ5, cRNA-injected Xenopus laevis oocytes, recorded 48-72 hours after injection, FIG. 1B
Protocol: The electrodes were filled with 3 M KCl solution with resistances ranging from 0.5 to 1.5 MΩ.
For Examples 4 and 5, the cRNAs of rKONQ5 were injected directly into Xenopus laevis oocytes and the electrophysiological recordings were performed 48-72 hours after RNA injection using two-electrode voltage clamp recording (see Jow F and Wang K-W, Mol. Brain Res. 80:269-78 (2000) for methods). The electrodes were filled with 3 M KCI solution with resistances ranging from 0.5 to 1.5 MΩ. The bath solution pf pH 7.4 was a “ND96” containing the following (in mM): NaCI, 96; KCl, 2; CaCl21.8; MgCl2 1; HEPES, 10 (see FIG. 1A).

[2] = tested on: rat KCNQ5/KCNQ3 heteromeric channels; assay: Two-electrode voltage clamp recording of rKCNQ5 co-expressed with KCNQ3 in Xenopus laevis oocytes; assay type: cell-based; details: FIG. 2D
Text: There is a significant increase in the current amplitude of the rat KCNQ5/KCNQ3 heteromeric channels compared with that of the rKCNQ5 or rat KCNQ3 homomeric channels. The homomeric channels here refer to those with only one type of channel subunits expressed in Xenopus laevis oocytes. In this case, it refers to either rKCNQ5 alone (FIG. 2A) or rat KCNQ3 alone (FIG. 2B). Heteromeric channels means that the functional channels are composed of subunits of both rKCNQ5 and rat KCNQ3 (FIG. 2C). It is believed that those functional channels are composed of 4 such subunits. Therefore, the functional channels are “tetramers”. If the 4 subunits are the same type (e.g. 4 rKCNQ5 subunits, or 4 rat KCNQ3 subunits), there are known as “homotetramers”. If the 4 subunits in these functional channels are different (e.g., 2 rKCNQ5+2 rat KCNQ3, or 3 rat KCNQ5+1 rat KCNQ3, etc.), they are known as “heterotetramers”.
For Examples 4 and 5, the cRNAs of rKONQ5 were injected directly into Xenopus laevis oocytes and the electrophysiological recordings were performed 48-72 hours after RNA injection using two-electrode voltage clamp recording (see Jow F and Wang K-W, Mol. Brain Res. 80:269-78 (2000) for methods). The electrodes were filled with 3 M KCI solution with resistances ranging from 0.5 to 1.5 MΩ. […]

For `O=C1c2ccccc2C(Cc2ccncc2)(Cc2ccncc2)c2ccccc21` [XE991], the “KCNQ5 channel current amplitude” value [1] was “decreased the current amplitude” and the “current amplitudes of heterotetramer channels” value [2] was “decrease”.
